The source of these data is US20250296938A1, “Compounds that Interact with the Ras Superfamily for the Treatment of Cancers, Inflammatory Diseases, Rasopathies, and Fibrotic Disease” (SHY Therapeutics, LLC, priority 2018, published 2025).

What all share (assay): Ras GTP binding domain inhibition assay (Cy3-GTP/Cy5-GTP competition)
In one experiment the target is T1, KRas G12D mutant (Homo sapiens, UniProt P01116, G12D).
T1 construct: fused on or other part: His tag, used for capture on nickel-coated plates
Conditions: at 20 μM. The procedure, abridged: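 Ni-plate immobilised His-Ras, overnight 4 °C; cpd 20 μM (or dilution series for IC50), 1% DMSO, 3 h RT; optional His-Sos […] last hour; Cy3- or Cy5-GTP 100 nM, 45 min RT; 3× wash; bound fluorescence read.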

The target in the next experiment is Rho-A (Homo sapiens, UniProt P61586). The procedure, abridged:
(§1)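 First, His-tagged protein is coated on nickel wells overnight at 4 °C. Next, compound (20 μM single point or serial dilution) is added for 3 h at room temperature, with or without Sos exchange factor in the last hour. Finally, 100 nM labelled GTP binds for 45 min and retained signal is measured.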

The next experiment deals with Rac-1 (Homo sapiens, UniProt P63000). The procedure, abridged:
as §1

The mark [1] stands for this setting: with SOS, read-out: KRas G12D mutant + SOS: % inh.
[2] abbreviates: without SOS, read-out: KRas G12D mutant: % inh.
Setting [3] is: with SOS, read-out: Rho-A + SOS: % inh.
The mark [4] stands for this setting: without SOS, read-out: Rho-A: % inh.
Setting [5] is: with SOS, read-out: Rac-1 + SOS: % inh.
Setting [6] is: without SOS, read-out: Rac-1: % inh.

Read-outs that look alike come from different tables or passages of the source.

On to `Oc1nc(-c2cn3cccnc3n2)nc2c(-c3ccccn3)csc12` [drawing 983], for which the inhibition at 20 µM at KRas G12D mutant (setting [1]) is 1 to 25%; at KRas G12D mutant (setting [2]) it was 1 to 25%; at Rho-A (setting [3]) it was 1 to 25%; at Rho-A (setting [4]), 26 to 50%; on Rac-1 (setting [5]) it was 0%; at Rac-1 (setting [6]), 0%.

Consider `COCCNc1nc(-c2cn(C)cn2)nc2sc(-c3cc(OC)ccc3Cl)c(-c3ccc(OC)cc3)c12` [drawing 930], for which the inhibition at 20 µM fell in the range of 26 to 50% at KRas G12D mutant (setting [1]); 26 to 50% at KRas G12D mutant (setting [2]); 26 to 50% at Rho-A (setting [3]); 51 to 75% on Rho-A (setting [4]); 51 to 75% at Rac-1 (setting [5]); 51 to 75% at Rac-1 (setting [6]).

In the case of `COCCCNc1nc(-c2nccn2C)nc2sc(-c3ccn(C)n3)c(-c3ccccc3)c12` [drawing 1001], the inhibition at 20 µM was 26 to 50% at KRas G12D mutant (setting [1]); 1 to 25% at KRas G12D mutant (setting [2]); 0% at Rho-A (setting [3]); 0% on Rho-A (setting [4]); 26 to 50% on Rac-1 (setting [5]); 1 to 25% at Rac-1 (setting [6]).

Consider `CO[C@H]1CC[C@@H](Nc2nc(-c3nccn3C)nc3sc(C(=O)NC(C)C)c(-c4ccccc4)c23)C1` [drawing 1059], for which the inhibition at 20 µM on KRas G12D mutant (setting [1]), at KRas G12D mutant (setting [2]), on Rho-A (setting [3]), on Rho-A (setting [4]), on Rac-1 (setting [5]) and at Rac-1 (setting [6]) was 76 to 100% throughout.

In the case of `CO[C@H]1CCC(Nc2nc(-c3nccn3C)nc3sc(-c4ccn(C)n4)c(-c4ccccc4)c23)C1` (stereo partly drawn) [drawing 995], the inhibition at 20 µM on KRas G12D mutant (setting [1]) was 51 to 75%; at KRas G12D mutant (setting [2]), 1 to 25%; at Rho-A (setting [3]), 76 to 100%; on Rho-A (setting [4]), 51 to 75%; on Rac-1 (setting [5]), 51 to 75%; on Rac-1 (setting [6]), 51 to 75%.

Turning to `COc1c(O)nc(-c2ccccn2)nc1Oc1cccnc1` [drawing 937], the inhibition at 20 µM lay in the range of 51 to 75% on KRas G12D mutant (setting [1]); 51 to 75% at KRas G12D mutant (setting [2]); 76 to 100% on Rho-A (setting [3]); 76 to 100% at Rho-A (setting [4]); 76 to 100% on Rac-1 (setting [5]); 76 to 100% at Rac-1 (setting [6]).

`Oc1nc(-c2cn3ccccc3n2)nc2c(-c3ccccn3)csc12` [drawing 951]: the inhibition at 20 µM on KRas G12D mutant (setting [1]) was 1 to 25%; on KRas G12D mutant (setting [2]), 26 to 50%; at Rho-A (setting [3]), 1 to 25%; on Rho-A (setting [4]) it was 1 to 25%; on Rac-1 (setting [5]) it was 26 to 50%; on Rac-1 (setting [6]) it was 1 to 25%.

For `COc1cccc(-c2sc3nc(-c4nccn4C)nc(N4CCC(OC)C4)c3c2-c2ccccc2)c1F` (stereo not drawn) [drawing 1025], at KRas G12D mutant (with SOS), the “KRas G12D mutant + SOS: % inh.” value was “C (51-75% inhibition)”. Also, at KRas G12D mutant (without SOS), the “KRas G12D mutant: % inh.” value was “A (1-25% inhibition)”. The “Rho-A + SOS: % inh.” value at Rho-A (at 20 μM, with SOS) was “B (26-50% inhibition)”. Further, on Rho-A (at 20 μM, without SOS), the “Rho-A: % inh.” value is “B (26-50% inhibition)”. The “Rac-1 + SOS: % inh.” value on Rac-1 (at 20 μM, with SOS) is given as “B (26-50% inhibition)”. The “Rac-1: % inh.” value on Rac-1 (at 20 μM, without SOS) is “B (26-50% inhibition)”.

Turning to `CO[C@H]1C[C@@H](Nc2nc(-c3nccn3C)nc3sc(C(=O)NC(C)C)c(-c4ccccc4)c23)C1` [drawing 1055], the inhibition at 20 µM is 51 to 75% on KRas G12D mutant (setting [1]); 51 to 75% at KRas G12D mutant (setting [2]); 51 to 75% at Rho-A (setting [3]); 51 to 75% on Rho-A (setting [4]); 76 to 100% at Rac-1 (setting [5]); 76 to 100% on Rac-1 (setting [6]).

With `COc1ccc(-c2c(-c3cccc(OC)c3F)sc3nc(-c4nccn4C)nc(N4CCC(OC)C4)c23)cc1` (stereo not drawn) [drawing 941], the inhibition at 20 µM is 51 to 75% on KRas G12D mutant (setting [1]); 51 to 75% at KRas G12D mutant (setting [2]); 51 to 75% at Rho-A (setting [3]); 51 to 75% on Rho-A (setting [4]); 0% on Rac-1 (setting [5]); 0% on Rac-1 (setting [6]).
